Experimental data taken from US12630517B2, “Process for preparing large size isoxazoline particles” (Intervet Inc., priority 2017, dated 2026).

What was measured:
Assay type in all cases: physicochemical
[1] = Scanning electron microscopy of particles
Source text: Scanning electron microscopy (SEM) is an analytical instrument that uses a focused beam of high-energy electrons to generate a variety of signals at the surface of solid specimens. The signals reveal information about the sample including external morphology (texture), chemical composition, and crystalline structure and orientation of materials making up the sample. FIG. 8 is a scanning electron microscopy image of fluralaner particles that were not produced the inventive process. Of note is that these crystals are rather thin. FIG. 9 is a scanning electron microscopy image of fluralaner particles that were produce by the inventive process. In contrast to the particles shown in FIG. 8, these particles are large (around 100 μm) and thick (around 10-20 μm).

[2] = Pressure titration for mechanical resiliency (Sympatec HELOS), 1 to 3 bar dispersion pressure; settings: for reduction in x50/d50 from the pressure titration from 1 bar to 3 bar: dried particles of the example (FIG. 10, FIG. 15)
Source text: Mechanical resiliency is the resistance of crystals or particles to break into smaller crystals or particles when exposed to pressure or stress from other sources. Mechanical resiliency can be measured by a pressure titration using the Sympatec HELOS. This instrument can simultaneously measure the particle size distribution. In this experiment, pressure is applied to the crystals to disperse or separate them one from another. The change in the particle size distribution measurement of d50 is monitored as the pressure on the crystals is increased from 1 bar to 3 bars. Preferably, the isoxazoline compound particles of the subject invention will not decrease their particle size distribution measurement of d50 by more than 30-40% when the dispersion pressure is increased from 1 to 3 bar.
(§1) The volume weighted particle size of the fluralaner crystals was measured by laser diffraction (Sympatec Helos) to determine the particle size distribution. The mechanical resiliency was also determined during a pressure titration experiment. […] In this case, this material is the product of the previous commercial process using an unseeded, distillative crystallization process from an ethyl acetate, toluene solvent system. Of note is the lower particle size and general wider distribution of sizes of the particles.
In this experiment, the particle size distribution was monitored as the particles are exposed to increasing pressure from 1 bar to 3 bar. […] Moreover, the particle size distribution curve broadens and shifts towards smaller particle sizes. This is evidence that these particles are being broken under the increased pressure and is an indication that the particles were very thin.

[3] = Volume weighted particle size distribution by laser diffraction (Sympatec Helos); settings: for x50/d50 particle size dimension at end of recycle loop: in-process slurry at 54° C., after the recycle loop, before final cooling
Source text: As used herein, particle size data reported are volume weighted as measured by conventional particle techniques well known to those skilled in the art, such as static light scattering (also known as laser diffraction), image analysis or sieving. More discussion of particle size measurement is provided below.
The volume weighted particle size can be measured by sieving, microscopy or laser diffraction (Malvern or Sympatec) The volume weighted particle size measurement can be performed with a Malvern Mastersizer 2000 with the Hydro 2000G measuring cell, or with a Horiba LA-910 laser scattering particle size distribution analyzer. The volume weighted particle size can be measured by a Sympatec Helos instrument.
as §1

[4] = Particle size by wet method, Microtrac static light scattering; settings: FIG. 13
Experimental: FIG. 13—Particle size distribution of the material made from Example 4. […] The particle size measurement for this sample was conducted with a wet method using a Microtrac static light scattering system.

[5] = FIG. 9, particles produced by the inventive process

Cc1cc(C2=NOC(c3cc(Cl)cc(Cl)c3)(C(F)(F)F)C2)ccc1C(=O)NCC(=O)NCC(F)(F)F (stereo not drawn) [fluralaner, 4-[5-(3,5-Dichlorophenyl)-5-trifluoromethyl-4,5-dihydroisoxazol-3-yl]-2-methyl-N-[(2,2,2-trifluoro-ethylcarbamoyl)-methyl]-benzamide]
particle thickness by SEM ([1]; FIG. 8, particles not produced by the inventive process): rather thin | particle size by SEM [1, 5]: around 100 μm | particle thickness by SEM [1, 5]: 10-20 μm | particle size (x50) at 2 bar dispersing pressure ([2]; FIG. 5, crystals not produced by the inventive process, 2 bar): 80 μm | particle size (d50) at 1 bar ([2]; FIG. 6, crystals produced by the inventive process, 1 bar): 100 μm | particle size (d50) at 3 bar ([2]; FIG. 6, crystals produced by the inventive process, 3 bar): 73 μm | loss of d50 in pressure titration ([2]; FIG. 7, additional batch produced by the inventive process): around 35% | d50 after pressure titration ([2]; FIG. 7, additional batch produced by the inventive process, after pressure increase): around 67 μm | original d50 ([2]; FIG. 7, additional batch produced by the inventive process, before pressure increase): around 103 μm | d50 reduction in pressure titration test ([2]; FIG. 10, crystals produced by the inventive process, % of the original value): around 25%

Cc1cc(C2=NOC(c3cc(Cl)cc(Cl)c3)(C(F)(F)F)C2)ccc1C(=O)NCC(=O)NCC(F)(F)F (stereo not drawn) [Example 4]
x50/d50 particle size dimension at end of recycle loop [3]: approximately 40 μm | d10 [4]: 47.3 μm | d50 [4]: 103 μm | d90 [4]: 158.8 μm

Cc1cc(C2=NOC(c3cc(Cl)cc(Cl)c3)(C(F)(F)F)C2)ccc1C(=O)NCC(=O)NCC(F)(F)F (stereo not drawn) [Example 5]
average d50 of resulting material ([3]; FIG. 15, crystallised from 5:3 toluene:ethyl acetate): 99 μm | x50/d50 particle size dimension at end of recycle loop [3]: approximately 50 μm | reduction in x50/d50 from the pressure titration from 1 bar to 3 bar [2]: approximately 20%

Cc1cc(C2=NOC(c3cc(Cl)cc(Cl)c3)(C(F)(F)F)C2)ccc1C(=O)NCC(=O)NCC(F)(F)F (stereo not drawn) [Example 3]
x50 of resulting material ([3]; FIG. 10, dried particles): 108 | x50/d50 particle size dimension at end of recycle loop [3]: approximately 45 μm | reduction in x50/d50 from the pressure titration from 1 bar to 3 bar [2]: approximately 24%

Cc1cc(C2=NOC(c3cc(Cl)cc(Cl)c3)(C(F)(F)F)C2)ccc1C(=O)NCC(=O)NCC(F)(F)F (stereo not drawn) [Example 1]
x50/d50 particle size dimension at end of recycle loop [3]: approximately 40 μm
